In test [1] the target is Gamma-aminobutyric acid receptor subunit alpha-4 (Rattus norvegicus, UniProt P28471).
For test [2], the target named is Gamma-aminobutyric acid receptor subunit alpha-6 (Rattus norvegicus, UniProt P30191).
Chain of Gamma-aminobutyric acid receptor subunit alpha-6 (P30191 whole entry): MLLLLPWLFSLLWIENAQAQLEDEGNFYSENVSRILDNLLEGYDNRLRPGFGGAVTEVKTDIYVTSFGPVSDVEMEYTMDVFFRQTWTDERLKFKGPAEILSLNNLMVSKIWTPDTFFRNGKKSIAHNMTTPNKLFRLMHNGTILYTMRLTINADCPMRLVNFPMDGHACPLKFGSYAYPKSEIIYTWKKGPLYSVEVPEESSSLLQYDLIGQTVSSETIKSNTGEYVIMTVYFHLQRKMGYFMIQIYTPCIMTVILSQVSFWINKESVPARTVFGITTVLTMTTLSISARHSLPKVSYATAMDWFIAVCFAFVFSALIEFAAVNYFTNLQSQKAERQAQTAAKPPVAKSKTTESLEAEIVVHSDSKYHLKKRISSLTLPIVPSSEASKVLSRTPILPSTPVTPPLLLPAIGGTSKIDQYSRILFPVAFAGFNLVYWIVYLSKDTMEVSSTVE

Chain of Gamma-aminobutyric acid receptor subunit alpha-4 (P28471 whole entry): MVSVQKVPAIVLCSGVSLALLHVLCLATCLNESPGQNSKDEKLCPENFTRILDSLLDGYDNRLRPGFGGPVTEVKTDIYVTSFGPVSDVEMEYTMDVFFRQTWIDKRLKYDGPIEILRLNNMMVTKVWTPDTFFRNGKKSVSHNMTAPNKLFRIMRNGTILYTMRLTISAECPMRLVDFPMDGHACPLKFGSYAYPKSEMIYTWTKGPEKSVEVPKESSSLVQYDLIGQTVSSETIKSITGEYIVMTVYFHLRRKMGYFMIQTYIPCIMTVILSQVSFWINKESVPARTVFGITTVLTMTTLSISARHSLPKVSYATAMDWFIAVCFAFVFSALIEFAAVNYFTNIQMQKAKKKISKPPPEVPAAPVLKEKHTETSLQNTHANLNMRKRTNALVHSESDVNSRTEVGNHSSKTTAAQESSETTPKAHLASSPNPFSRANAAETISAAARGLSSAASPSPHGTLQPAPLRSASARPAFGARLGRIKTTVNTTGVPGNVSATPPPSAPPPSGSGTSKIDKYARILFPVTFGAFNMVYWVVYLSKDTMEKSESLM

One may read the Ki as a measure of affinity in units of concentration, obtained from inhibition or displacement. Take `O=c1c2cnc3ccccc3c2[nH]n1-c1ccccc1`: the inhibition constant (Ki) worked out at 8 nM in test [1] and 34.3 nM in test [2].

In the case of `CN1Cc2c(C(=O)OC(C)(C)C)ncn2-c2ccc(Cl)cc2C1=O`, the values for the inhibition constant (Ki) in test [1] and in test [2] were 9.5 nM and 8.2 nM, respectively.

Turning to `CN1Cc2c(C(=O)OC(C)(C)C)ncn2-c2ccc(N=[N+]=[N-])cc2C1=O`, the Ki in test [1] came out at 5.2 nM; in test [2] it was 5.3 nM.

`COC(=O)c1cc2c(cn1)[nH]c1ccccc12`: the results for the Ki in test [1] and in test [2] were 436 nM and 2020 nM, respectively.

In test [2], `CCOC(=O)c1cc2c(cn1)[nH]c1ccccc12` displayed a Ki of 2620 nM. This lies in the single-digit micromolar range.

For the compound `CC(C)(C)OC(=O)c1cc2c(cn1)[nH]c1ccccc12`, the inhibitory constant (Ki) in test [1] was 897 nM; in test [2] it was 4750 nM.

On to `O=c1c2cnc3ccccc3c2[nH]n1-c1ccc(Cl)cc1`, for which the Ki stood at 214 nM in test [1] and 500 nM in test [2].

For `COc1ccc(-n2[nH]c3c(cnc4cc(OC)ccc43)c2=O)cc1`, the Ki turned out to be 11.6 nM in test [1] and 23 nM in test [2].

Turning to `COc1ccc2ncc3c(=O)n(-c4ccccc4)[nH]c3c2c1`, the Ki in test [1] is 22.5 nM; in test [2], 74.5 nM.

With `COc1ccc(-n2[nH]c3c(cnc4ccccc43)c2=O)cc1` [2-(4-Methoxy-phenyl)-2,5-dihydro-pyrazolo[4,3-c]quinolin-3-one (CGS 9895)], the Ki worked out at 6.8 nM in test [1] and 38.4 nM in test [2].

Turning to `CCc1ccc2c(c1)C(=O)N(C)Cc1c(C(=O)OC(C)(C)C)ncn1-2` [DM 286], the Ki in test [1] was found to be 10 nM; in test [2], 13.5 nM.

With `CN1Cc2c(C(=O)OC(C)(C)C)ncn2-c2ccc(OCc3ccccc3)cc2C1=O` [DM-236], the Ki stood at 188 nM in test [1] and 1590 nM in test [2].

As for `CCc1c(C(=O)OC)ncc2[nH]c3cc(OC)c(OC)cc3c12` [NSC_104999], the Ki in test [1] was 38.5 nM; in test [2], 121 nM.

As for `CCOC(=O)c1ncc2[nH]c3ccc(OCc4ccccc4)cc3c2c1COC` [NSC_121926], the Ki in test [1] and in test [2] was > 10000 nM each time.

In the case of `CCOC(=O)c1ncc2[nH]c3cccc(OCc4ccccc4)c3c2c1COC` [NSC_123700], the Ki in test [1] is 573 nM; in test [2], 1200 nM.

As to `CCOC(=O)c1ncn2c1CN(C)C(=O)c1cc(N=[N+]=[N-])ccc1-2` [RO-154513], the inhibitory constant (Ki) in test [2] was found to be 5.3 nM.

In the case of `CN1Cc2c(C(=O)OC(C)(C)C)ncn2-c2ccsc2C1=O` [Ro-19-4603], the Ki in test [1] was 6 nM; in test [2], 3.6 nM.

In the case of `CCOC(=O)c1ncn2c1CN(C)C(=O)c1cc(F)ccc1-2` [ethyl 12-fluoro-8-methyl-9-oxo-2,4,8-triazatricyclo[8.4.0.0^{2,6}]tetradeca-1(14),3,5,10,12-pentaene-5-carboxylate], in test [1], the affinity, expressed as Ki, was 118 nM.

These data come from BindingDB's records for doi:10.1016/s0028-3908(96)00054-8 (National Institute of Diabetes, Digestive and Kidney …, 1996).
